Experimental data published in paper PMC7217877, “N-AS-triggered SPMs are direct regulators of microglia in a model of Alzheimer’s disease” (Nature Communications, 2020).
Where “and” joins values, the source holds several entries; their conditions need not be identical. Equal values may be shown once.

T1: COX2 S565A (Homo sapiens, UniProt P35354, S565A)
T1 construct: His (N); made in house
T1 sequence (P35354 18-604 S565A): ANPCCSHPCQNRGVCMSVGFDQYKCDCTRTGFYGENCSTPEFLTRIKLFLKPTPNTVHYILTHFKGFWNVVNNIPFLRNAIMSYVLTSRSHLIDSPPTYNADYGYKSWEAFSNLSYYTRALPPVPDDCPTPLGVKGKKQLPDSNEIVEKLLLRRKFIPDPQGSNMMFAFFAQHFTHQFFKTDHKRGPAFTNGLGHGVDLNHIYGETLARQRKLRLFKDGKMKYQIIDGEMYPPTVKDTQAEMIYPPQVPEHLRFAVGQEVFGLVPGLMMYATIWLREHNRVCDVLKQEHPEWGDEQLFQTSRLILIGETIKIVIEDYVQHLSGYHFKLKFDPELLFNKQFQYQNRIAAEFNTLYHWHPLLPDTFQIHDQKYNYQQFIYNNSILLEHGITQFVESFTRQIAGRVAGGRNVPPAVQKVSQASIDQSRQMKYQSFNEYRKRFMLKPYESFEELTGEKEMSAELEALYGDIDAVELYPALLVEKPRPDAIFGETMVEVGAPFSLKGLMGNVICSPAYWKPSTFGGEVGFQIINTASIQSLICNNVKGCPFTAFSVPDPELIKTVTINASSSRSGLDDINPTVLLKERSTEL

B1: Sphk1: purified sphingosine kinase1 enzyme (Cayman, 10348) supplemented to cell lysates (protein, UniProt Q9NYA1 1-384, looked up)
Sphingosine kinase 1: MDPAGGPRGVLPRPCRVLVLLNPRGGKGKALQLFRSHVQPLLAEAEISFTLMLTERRNHARELVRSEELGRWDALVVMSGDGLMHEVVNGLMERPDWETAIQKPLCSLPAGSGNALAASLNHYAGYEQVTNEDLLTNCTLLLCRRLLSPMNLLSLHTASGLRLFSVLSLAWGFIADVDLESEKYRRLGEMRFTLGTFLRLAALRTYRGRLAYLPVGRVGSKTPASPVVVQQGPVDAHLVPLEEPVPSHWTVVPDEDFVLVLALLHSHLGSEMFAAPMGRCAAGVMHLFYVRAGVSRAMLLRLFLAMEKGRHMEYECPYLVYVPVVAFRLEPKDGKGVFAVDGELMVSEAVQGQVHPNYFWMVSGCVEPPPSWKPQQMPPPEEPL

How the values were obtained:
neuron = test: western blotting for ac-S565 and total COX2 in primary cells; type: cell-based, C57BL/6 mice; settings: replicates
COX2 S565A = molecular target: T1, COX2 S565A; test: lipid mediator and SPM biosynthesis by recombinant COX2 with 5-LOX (LC-MS/MS); type: biochemical; settings: COX2 S565A + 5-LOX; replicates
Excerpt: Single point mutations in SphK1 (R56A, R57A, R24A, R185A, D178A, and F192A) and COX2 (S565A, N181A, T564A, and S567A) were generated using the In-Fusion Cloning Kits (Clontech) and ORF cDNA expression plasmids of human SphK1 and COX2 gene (Sino Biological Inc, HG15679-NH and HG12036-NH), according to the manufacturer’s instructions. The forward and reverse primers described in Supplementary Table 4. The SphK1 WT, SphK1 mutants, COX2 WT, and COX2 mutant plasmids were transformed in the One shot TOP 10 competent cell (Invitrogen). The bacteria were grown in Luria-Bertani (LB, Invitrogen) plates supplemented with 50 μg ml^−1 kanamycin (Sigma-Aldrich) at 37 °C. The bacterial cell pellets were resuspended in lysis buffer containing 20 mM sodium phosphate (GE Healthcare), 500 mM NaCl (GE Healthcare), 20 mM imidazole (pH 7.4) (GE Healthcare), 0.2 mg ml^−1 lysozyme (Sigma-Aldrich), 20 μg ml^−1 DNase I (Roche), 1 mM MgCl2 (Sigma-Aldrich), and 1 mM PMSF (Sigma-Aldrich) before being lysed by sonication and clarified by centrifugation at 15,493×g for 10 min. Proteins were purified from the soluble fraction using His-Spin Trap columns (GE Healthcare) and the binding and acetylation assays were performed.
Lipid mediators metabololipidomics were performed according to previously described procedures with minor modifications[4],[30]. To confirm the biosynthesis of lipid mediators by recombinant COX2 treated with N-AS or aspirin, 10 U of human recombinant COX2 (Cayman, 60122) was incubated in the presence of 500 μM aspirin (Sigma-Aldrich, A5376) or N-AS (Sigma-Aldrich, 01912) at 37 °C for 30 min. The enzyme was filtered with a Microcon column (Millipore) to remove unreacted aspirin or N-AS and was then resuspended in 0.1 M Tris-HCl (pH 8.0). Next, 500 μM phenol (Sigma-Aldrich) and 1 μM hematin-porcine (Sigma-Aldrich) were added immediately before incubation with 100 μM AA, EPA or DHA (Cayman) at 37 °C for 2 h, respectively. The mixtures were incubated with 30 U of human 5-LOX (Cayman, 60402) containing 2 mM CaCl2 (Sigma-Aldrich), 1 mM ATP (Amresco) and 5 μM 13-HpODE (Cayman) as activators. Also, to validate the importance of residue S565 for N-AS-acetylation of COX2 and production of SPMs, 10 U of the COX2 S565A mutant was used in the above-described method. In addition, to confirm SPM generation in neurons and microglia, these cells were treated with Aβ and sonicated in neuronal and glial culture medium. […] To evaluate the relationship of N-AS and SPM production in microglia, microglia were isolated from WT, APP/PS1, and APP/PS1 treated with N-AS mice at 9 months of age. The microglia were sonicated and resuspended in microglial culture medium. The supernatants were incubated with 100 μM AA, EPA, and DHA (Cayman) at 37 °C for 2 h. A 50 μl aliquot of the mixture from each cell lysate was added to a 250 μl aliquot of 1 ng ml^−1 of 15S-LXA4-d5 (internal standard, Cayman) methanol solution. After vortexing for 10 min and centrifuging at 15,974×g for 5 min, the supernatant was subjected to the analysis of the lipid mediators using an Agilent 6470 Triple Quad LC-MS/MS system (Agilent) coupled to an Agilent 1290 HPLC system. Chromatographic separation was achieved using a Synergi Polar RP (4 μm, 2.0 mm i.d. × 150 mm, Phenomenex). Analytes were eluted with a mobile phase consisting of water: formic acid (100:0.1 v/v) (phase A) and methanol: formic acid (100:0.1 v/v) (phase B) in gradient elution mode for 23 min a flow rate of 0.2 ml min^−1. The elution gradient was as follows: from 0 to 0.1 min the content of phase A was 37% and the content of phase A was decreased to 10% and maintained for 5.5 min. The content of phase A was increased back to 37% at 6.0 min and maintained for 23 min. Quantification was carried out using MRM in negative ionization mode and collision energy of 10–15 eV. The mass transition from Q1 to Q3 is shown in Supplementary Table 2. In this study, the peak areas for all components were automatically integrated using MassHunter B 06.00. […]

| Molecule | ac-S565, western blotting (Fig 3h) (neuron; Ab 10mM + supplement) | 15R-LxA4 quantification (Fig 2c) (COX2 S565A) | RvD1 quantification (Fig 2c) (COX2 S565A) | RvE1 quantification (Fig 2c) (COX2 S565A) | also measured |
| --- | --- | --- | --- | --- | --- |
| CC(=O)SCCNC(=O)CCNC(=O)[C@H](O)C(C)(C)COP(=O)(O)OP(=O)(O)OC[C@H]1O[C@@H](n2cnc3c(N)ncnc32)[C@H](O)[C@@H]1OP(=O)(O)O [Acetyl-CoA, acetyl-CoA] | 0.4974 and 0.4784 and 0.4801 and 0.5239 | – | – | – | – |
| CC(=O)Oc1ccccc1C(=O)O [Aspirin, acetylsalicylic acid, reference compound] | – | 9150.99 and 8986.22 and 7776.32 and 8811.42 and 9216.35 and 9050.41 | 427.4 and 465.61 and 668.98 and 626.93 and 591.63 and 656.31 and 339.99 | 3219.24 and 3312.36 and 4211.76 and 3281.98 and 3114.22 and 3326.6 | – |
| CCCCCCCCCCCCC/C=C/[C@@H](O)[C@H](CO)NC(C)=O [N-AS, N-((2S,3R,E)-1,3-Dihydroxyoctadec-4-en-2-yl)acetamide] | 1.382 and 1.374 (2×) and 1.247 | 4593.92 and 7037.27 and 8226.06 and 8467.27 and 8518.27 | 267.45 and 147.28 and 357.09 and 383.18 and 373.27 and 420.17 and 225.36 | 2644.24 and 1751.77 and 1695.83 and 1984.56 and 2632.92 and 1703.12 and 1993.09 | – |
| CCCCCCCCCCCCC/C=C/[C@@H](O)[C@@H](N)CO [Sph, sphingosine] | 0.6309 and 0.6553 and 0.6332 and 0.656 | – | – | – | – |
| Ab: Aβ 1–42 (Invitrogen, 03112) used to induce an AD environment in cells | – | – | – | – | ac-S565, western blotting (Fig 3h) (neuron; Ab 10mM, no supplement): 0.4287 and 0.5828 and 0.4634 and 0.6503; ac-S565 / total COX2, western blotting (Fig 3b) (neuron; Ab 10mM): 0.7374 and 0.6807 and 0.7791 and 0.4902 and 0.709 and 0.7299 |
| B1 | 1.248 and 1.156 and 1.263 and 1.199 | – | – | – | – |
